{
  "source": "patent US8148392B2",
  "about": "“2-indolyl imidazo [4,5-d] phenanthroline derivatives and their use in the treatment of cancer” (Lorus Therapeutics Inc., priority 2005, dated 2012)",
  "format_in_all_cases": "cell-based, human",
  "key": {"[1]": {"tested_on": "DU-145 prostate cancer cells", "assay": "XTT cell proliferation assay, DU-145", "conditions": "read-out: IC50 (cell growth inhibition)", "method": "(§1) Cell growth inhibition IC50 (μM) by compounds of Formula I was tested on various cancer cell types by XTT cell proliferation assay. The growth inhibitory effects of the compounds of Formula I as shown below for the melanoma cell line SK-MEL-2 were reproducible by Lorus Therapeutics Inc."}, "MTF-1": {"tested_on": "MTF-1", "assay": "MTF-1 gene expression in HT-29 cells, RT-PCR", "conditions": "for MTF-1 expression change with zinc supplement: HT-29, 1 μM compound plus ZnCl2, 8 hr; for MTF-1 gene expression, change: HT-29, 1 μM, in words", "method": "The gene expression of MTF-1 was examined by RT-PCR following treatment of HT-29 cells with 1 μM compound 3 for indicated time.\nTo assess the cellular response to zinc depletion, the gene expression of zinc-sensitive transcription factor MTF-1 was examined.\n(§2) The ability of compounds of Formula I to modulate gene expression of MT1A (FIG. 55A), MTF-1 (FIG. 55B), Cyclin D1 (FIG. 55C) and KLF4 (FIG. 55D) was determined by RT-PCR. HT-29 cells were treated with 1 μM compound 3 or compound 7, 35 μM ZnCl2, compound 3 and ZnCl2 together, or compound 7 and ZnCl2 together for 8 to 16 hr. The respective gene expression was normalized with β-actin gene expression in the same sample. Fold change in gene expression was expressed relative to the respective gene level of DMSO control.\n(§3) The effect of compound 3 and compound 64 on gene expression changes in MT1A (FIG. 57A), MTF-1 (FIG. 57B), Cyclin D1 (FIG. 57C) and KLF4 (FIG. 57D) in HT-29 cells was determined by RT-PCR. HT-29 cells were treated with 1 μM compound 3 or compound 64, 35 μM ZnCl2, compound 3 and ZnCl2 together, or compound 64 and ZnCl2 together for 8 to 16 hr. The respective gene expression was normalized with β-actin gene expression in the same sample. Fold change in gene expression was expressed relative to the respective gene level of DMSO control."}, "H-460 lung cancer cells": {"tested_on": "H-460 lung cancer cells", "assay": "XTT cell proliferation assay, H-460", "method": "as §1"}, "KLF4 [2]": {"tested_on": "KLF4", "assay": "KLF4 gene expression by RT-PCR, SK-MEL-2", "conditions": "SK-MEL-2, relative to vehicle control as 1", "from_the_text": "(§4) Gene expression levels of KLF4, induced by compounds of Formula I, were also examined on various cancer cell types by RT-PCR. Fold changes in KLF4 in compound-treated cells were expressed relative to KLF4 expression in vehicle control-treated cells of respective cell type as “1”. […] Additionally, xenografts of MDA-MB-435 implanted into mammary fat pads of female SCID mice have shown immunohistochemical staining consistent with melanocytic origin (Ellison G, Klinowska T, Westwood R F, Docter E, French T, Fox J C. (2002) Mol Pathol. 55(5): 294-299). The breast cancer cell line MDA-MB-435 may be expected to function differently than the other breast cancer cell lines."}, "KLF4 [3]": {"tested_on": "KLF4", "assay": "KLF4 gene expression by RT-PCR, CCRF-CEM", "conditions": "relative to vehicle control as 1", "from_the_text": "as §4"}, "[4]": {"tested_on": "metallothionein 1A (MT1A)", "assay": "Metallothionein 1A (MT1A) mRNA expression in HT-29 cells, real time PCR", "conditions": "for MT1A expression change with zinc supplement: HT-29, 1 μM compound plus 35 μM ZnCl2; for MT1A gene expression, change: HT-29, versus DMSO control, in words", "method": "To determine whether compounds of Formula I can chelate zinc in cells, the effect of compound 3 on the expression level of a zinc-regulated gene, metallothionein 1A (MT1A), in human colon carcinoma HT-29 cells, was determined. HT-29 cells, 1×10^6 cells in 10 mL volume of the growth medium were seeded in 100 mm dishes and incubated overnight at 37° C. The medium was removed and replaced with the growth medium containing 35 μM ZnCl2, 1 μM or 4 μM TPEN (NNNN-tetrakis(2-pyridyl-methyl)ethylenediamine), or 1 μM or 4 μM compound 3, or 0.1% DMSO vehicle control. After incubation for 16 hours, the cells were detached by trypsinization, collected by centrifugation and washed once with PBS. Total RNA was extracted by using TRIZOL (Invitrogen, Life Technologies, Carlsbad, Calif.), following manufacturer's instruction, and the level of MT1A mRNA was measured by real time PCR using the comparative CT method as follows. First strand cDNA was synthesized from 200 ng total RNA in Biometra Tpersonal Thermal Cycler (Abgene, UK), using pd(N)6 random hexamer (Amersham Biosciences, Piscataway, N.J.) and SuperScript™ II Reverse Transcriptase kit (Invitrogen) by following manufacturer's protocol. Real-time PCR was performed in ABI Prism 7000 Sequence Detection System (Applied Biosystems Inc., ABI, Foster City, Calif.), using 5 μL of cDNA synthesized by above-mentioned procedure and respective TaqMan® Gene Expression Assays (ABI) by following ABI TaqMan® Universal PCR master mix protocol.\nThe effect of compound 3 and compound 7 treatment on the expressions of a zinc-storage protein meallothionein 1A (MT1A) (FIG. 29A), a copper transporter, Ctrl also known as SLC31A1 (FIG. 29B) and an iron transporter; transferrin receptor 1 (TfR1) (FIG. 29C) were measured and compared with a known zinc chelator TPEN, a copper chelator tetramine and an iron chelator DFO, respectively. Despite in vitro chelation of Cu^+2, increase in copper-sensitive gene after compound 3 treatment was transient.\nHT-29 cells were treated with 1 μM compound 3 for the indicated time and MT1A gene expression was measured as follows. Total RNA was extracted using TRIZOL method and gene expression level was determined by quantitative reverse-transcription polymerase chain reaction (RT-PCR). MT1A gene expression was normalized with β-actin gene expression in the same sample. Fold change in MT1A was expressed relative to MT1A level of DMSO control at respective time points.\nTo verify that the MT1A gene expression reflected the intracellular zinc level, HT-29 cells were treated with 1 μM compound 3, 35 μM ZnCl2 or compound 3 and ZnCl2 together for 16 hr (FIG. 38B). MT1A gene expression was determined by RT-PCR as described above. MT1A gene expression was elevated in response to increased intracellular zinc ions in ZnCl2-treated cells.\nas §2, §3"}, "KLF4 [5]": {"tested_on": "KLF4", "assay": "KLF4 gene expression by RT-PCR, MOLT-4", "conditions": "MOLT-4, relative to vehicle control as 1", "from_the_text": "as §4"}, "Cyclin D1": {"tested_on": "Cyclin D1", "assay": "Cyclin D1 gene expression in HT-29 cells, RT-PCR", "conditions": "for Cyclin D1 expression change with zinc supplement: HT-29, 1 μM compound plus ZnCl2; for Cyclin D1 gene expression, change: HT-29, 1 μM, in words", "method": "Gene and protein expression of Cyclin D1 after treatment with compound 3 was determined by RT-PCR and Western blotting as shown in FIGS. 43A and 43B, respectively, as follows. HT-29 cells were treated with 1 μM compound 3 for indicated time. Total RNA was extracted and gene expression level was determined by RT-PCR. Cyclin D1 protein expression in HT-29 cell lysate was determined by SDS-PAGE followed by Western blotting.\nTo identify the cell cycle regulatory pathway involved in compound 3-mediated cell cycle arrest as shown in Example 23 and 41, particularly associated with G1/S phase, expression of the key cell cycle regulator of G1/S phase progression, Cyclin D1, was examined.\nas §2, §3"}, "[6]": {"conditions": "Homo sapiens, NCI-H460, read-out: IC50 (cell growth inhibition)"}},
  "note": "“Also recorded” adds a separate entry of the source. Like-named read-outs stand apart in the source and are kept apart here.",
  "data": [
    {"smiles": "Cc1[nH]c2ccccc2c1-c1nc2c3cccnc3c3ncccc3c2[nH]1", "note": "[Compound 3]", "values": [
      {"measurement": "IC50", "setting": "[1]; Homo sapiens", "result": 350, "unit": "nM"},
      {"measurement": "MTF-1 expression change with zinc supplement", "setting": "MTF-1", "result": "recovered by addition of zinc supplement; also recorded: reversed by addition of zinc supplement"},
      {"measurement": "MTF-1 gene expression, change", "setting": "MTF-1", "result": "Time-dependent decreases; also recorded: decrease in MTF-1 expression was observed after 8 hr treatment; also recorded: significant decrease in gene expression of MTF-1; also recorded: decreased expressions of MT1A, MTF-1 and Cyclin D1"},
      {"measurement": "IC50", "setting": "H-460 lung cancer cells; [6]", "result": 2900, "unit": "nM"},
      {"measurement": "KLF4 (gene fold increase)", "setting": "KLF4 [2]", "result": 2.38, "unit": "fold"},
      {"measurement": "KLF4 (gene fold increase)", "setting": "KLF4 [3]", "result": 28.05, "unit": "fold"},
      {"measurement": "MT1A expression change with zinc supplement", "setting": "[4]", "result": "reversed by addition of zinc supplement"},
      {"measurement": "decrease of MT1A expression", "setting": "[4]; HT-29, 16 hours, 1 μM or 4 μM", "result": "more than 50%"},
      {"measurement": "MT1A gene expression, change", "setting": "[4]", "result": "sustained decrease in zinc-sensitive gene; also recorded: decrease in MT1A gene expression was obvious after 8 hr treatment; also recorded: decreased expressions of MT1A, MTF-1 and Cyclin D1"},
      {"measurement": "KLF4 (gene fold increase)", "setting": "KLF4 [5]", "result": 44.79, "unit": "fold"},
      {"measurement": "Cyclin D1 expression change with zinc supplement", "setting": "Cyclin D1", "result": "reversed in the presence of 25 μM ZnCl2; also recorded: reversed by addition of zinc supplement"},
      {"measurement": "Cyclin D1 gene expression, change", "setting": "Cyclin D1", "result": "Time-dependent decreases; also recorded: decrease in both gene (FIG. 43A) and protein (FIG. 43B) levels of Cyclin D1; also recorded: significantly decreased; also recorded: decreased expressions of MT1A, MTF-1 and Cyclin D1"}
    ]},
    {"smiles": "Cc1[nH]c2ccc(F)cc2c1-c1nc2c3cccnc3c3ncccc3c2[nH]1", "note": "[Compound 7]", "values": [
      {"measurement": "IC50", "setting": "[1]; Homo sapiens", "result": 220, "unit": "nM"},
      {"measurement": "MTF-1 expression change with zinc supplement", "setting": "MTF-1", "result": "reversed by addition of zinc supplement"},
      {"measurement": "MTF-1 gene expression, change", "setting": "MTF-1", "result": "decreased expressions of MT1A, MTF-1 and Cyclin D1"},
      {"measurement": "IC50", "setting": "H-460 lung cancer cells; [6]", "result": 2600, "unit": "nM"},
      {"measurement": "KLF4 (gene fold increase)", "setting": "KLF4 [2]", "result": 3.32, "unit": "fold"},
      {"measurement": "KLF4 (gene fold increase)", "setting": "KLF4 [3]", "result": 48.5, "unit": "fold"},
      {"measurement": "MT1A expression change with zinc supplement", "setting": "[4]", "result": "reversed by addition of zinc supplement"},
      {"measurement": "MT1A gene expression, change", "setting": "[4]", "result": "decreased expressions of MT1A, MTF-1 and Cyclin D1"},
      {"measurement": "KLF4 (gene fold increase)", "setting": "KLF4 [5]", "result": 173.6, "unit": "fold"},
      {"measurement": "Cyclin D1 expression change with zinc supplement", "setting": "Cyclin D1", "result": "reversed by addition of zinc supplement"},
      {"measurement": "Cyclin D1 gene expression, change", "setting": "Cyclin D1", "result": "decreased expressions of MT1A, MTF-1 and Cyclin D1"}
    ]},
    {"smiles": "CCc1cccc2c(-c3nc4c5cccnc5c5ncccc5c4[nH]3)c(C(C)(C)C)[nH]c12", "note": "[Compound 64]", "values": [
      {"measurement": "IC50", "setting": "[1]", "result": 300, "unit": "nM"},
      {"measurement": "MTF-1 expression change with zinc supplement", "setting": "MTF-1", "result": "reversed by addition of zinc supplement"},
      {"measurement": "MTF-1 gene expression, change", "setting": "MTF-1", "result": "decreased expressions of MT1A, MTF-1 and Cyclin D1"},
      {"measurement": "IC50", "setting": "H-460 lung cancer cells; read-out: IC50 (cell growth inhibition)", "result": 300, "unit": "nM"},
      {"measurement": "KLF4 (gene fold increase)", "setting": "KLF4 [2]", "result": 5.35, "unit": "fold"},
      {"measurement": "KLF4 (gene fold increase)", "setting": "KLF4 [3]", "result": 73.77, "unit": "fold"},
      {"measurement": "MT1A expression change with zinc supplement", "setting": "[4]", "result": "reversed by addition of zinc supplement"},
      {"measurement": "MT1A gene expression, change", "setting": "[4]", "result": "decreased expressions of MT1A, MTF-1 and Cyclin D1"},
      {"measurement": "KLF4 (gene fold increase)", "setting": "KLF4 [5]", "result": 265.03, "unit": "fold"},
      {"measurement": "Cyclin D1 expression change with zinc supplement", "setting": "Cyclin D1", "result": "reversed by addition of zinc supplement"},
      {"measurement": "Cyclin D1 gene expression, change", "setting": "Cyclin D1", "result": "decreased expressions of MT1A, MTF-1 and Cyclin D1"}
    ]}
  ]
}
